Assay results: patent US7883715B2, “Pesticide compositions containing dicarboxylic acids” (Monsanto Technology LLC, priority 2002, dated 2011)
Like-named read-outs stand apart in the source and are kept apart here.

Experiments:
TRZVX = assay: Greenhouse herbicidal effectiveness, TRZVX; format: in vivo, wheat; conditions: Table 19A, 16 days after treatment
From the text: (§1) The following greenhouse testing procedure was used for evaluating compositions of the Examples to determine herbicidal effectiveness, except where otherwise indicated.
(§2) Seeds of the plant species indicated were planted in 88 mm square pots in a soil mix which was previously sterilized and prefertilized with a 14-14-14 NPK slow release fertilizer at a rate of 3.6 kg/m3. The pots were placed in a greenhouse with sub-irrigation. About one week after emergence, seedlings were thinned as needed, including removal of any unhealthy or abnormal plants, to create a uniform series of test pots.
(§3) The plants were maintained for the duration of the test in the greenhouse where they received a minimum of 14 hours of light per day. […] Exposure temperatures were not precisely controlled but averaged about 29° C. during the day and about 21° C. during the night. Plants were sub-irrigated throughout the test to ensure adequate soil moisture levels.
(§4) Pots were assigned to different treatments in a fully randomized experimental design with 6 replications. A set of pots was left untreated as a reference against which affects of the treatments could later be evaluated.
(§5) Application of glyphosate compositions was made by spraying with a track sprayer fitted with a 9501E nozzle calibrated to deliver a spray volume of 93 liters per hectare (l/ha) at a pressure of 165 kilopascals (kPa). After treatment, pots were returned to the greenhouse until ready for evaluation.
(§6) Treatments were made using dilute aqueous compositions. These could be prepared as spray compositions directly from their ingredients, or by dilution with water of preformulated concentrate compositions.
(§7) For evaluation of herbicidal effectiveness, all plants in the test were examined by a single practiced technician, who recorded percent control, a visual measurement of the effectiveness of each treatment by comparison with untreated plants. […] The reported % control values represent the average for all replicates of each treatment.

ABUTH = assay: Greenhouse herbicidal effectiveness, ABUTH; format: in vivo, velvetleaf; conditions: for efficacy ABUTH: Table 19A, 16 days after treatment; for inhibition at 75 g/ha / inhibition at 100 g/ha / inhibition at 150 g/ha / inhibition at 200 g/ha: Abutilon theophrasti, 408 h, 17 days after treatment; for inhibition at 75 g/ha: 75 g a.e./ha; for inhibition at 150 g/ha: 150 g a.e./ha
From the text: as §1, §2, §3, §4, §5, §6, §7

ECHCF = assay: Greenhouse herbicidal effectiveness, ECHCF; format: in vivo, Japanese millet, barnyardgrass; conditions: for efficacy ECHCF: Table 19A, 16 days after treatment; for inhibition at 75 g/ha / inhibition at 100 g/ha / inhibition at 150 g/ha / inhibition at 200 g/ha: 408 h, 17 days after treatment; for inhibition at 75 g/ha: 75 g a.e./ha; for inhibition at 150 g/ha: 150 g a.e./ha
From the text: as §1, §2, §3, §4, §5, §6, §7

[1] = 30 g a.e./ha, tank mix OTH1 1 % v/v
[2] = 70 g a.e./ha, tank mix OTH1 1 % v/v
[3] = 100 g a.e./ha, tank mix OTH1 1 % v/v
[4] = 200 g a.e./ha, tank mix OTH1 1 % v/v
[5] = read-out: % inhibition ABUTH, Table 19B, OTH1 1 % v/v
[6] = read-out: % inhibition ABUTH, Table 19B, no OTH22, no OTH1
[7] = read-out: % inhibition ECHCF, Table 19B, OTH1 1 % v/v
[8] = read-out: % inhibition ECHCF, Table 19B, no OTH22, no OTH1
[9] = Table 19B, OTH1 1 % v/v, read-out: % inhibition ABUTH
[10] = Table 19B, no OTH22, no OTH1, read-out: % inhibition ABUTH
[11] = Table 19B, OTH1 1 % v/v, read-out: % inhibition ECHCF
[12] = Table 19B, no OTH22, no OTH1, read-out: % inhibition ECHCF

| Compound | efficacy TRZVX (TRZVX; 30 g a.e./ha, no OTH1) | efficacy TRZVX (TRZVX; [1]) | efficacy TRZVX (TRZVX; 70 g a.e./ha, no OTH1) | efficacy TRZVX (TRZVX; [2]) | efficacy TRZVX (TRZVX; 100 g a.e./ha, no OTH1) | efficacy TRZVX (TRZVX; [3]) | efficacy TRZVX (TRZVX; 200 g a.e./ha, no OTH1) | efficacy TRZVX (TRZVX; [4]) | efficacy ABUTH (ABUTH; 30 g a.e./ha, no OTH1) | efficacy ABUTH (ABUTH; [1]) | efficacy ABUTH (ABUTH; 70 g a.e./ha, no OTH1) | efficacy ABUTH (ABUTH; [2]) | efficacy ABUTH (ABUTH; 100 g a.e./ha, no OTH1) | efficacy ABUTH (ABUTH; [3]) | efficacy ABUTH (ABUTH; 200 g a.e./ha, no OTH1) | efficacy ABUTH (ABUTH; [4]) | efficacy ECHCF (ECHCF; 30 g a.e./ha, no OTH1) | efficacy ECHCF (ECHCF; [1]) | efficacy ECHCF (ECHCF; 70 g a.e./ha, no OTH1) | efficacy ECHCF (ECHCF; [2]) | further results |
| --- | --- | --- | --- | --- | --- | --- | --- | --- | --- | --- | --- | --- | --- | --- | --- | --- | --- | --- | --- | --- | --- |
| C[C@@H](Oc1ccc(Oc2ccc(C(F)(F)F)cn2)cc1)C(=O)O [fluazifop-p] | 70 | 73 | 85 | 83 | 91 | 93 | 97 | 98 | 0, 0, 0, 0 | 0, 0, 0, 0 | 0, 0, 0, 0 | 0, 0, 0, 0 | 0, 0, 0, 0 | 0, 0, 0, 0 | 0, 0, 0, 0 | 0, 0, 0, 0 | 98 | 97 | 100 | 100 | efficacy ECHCF (ECHCF; 100 g a.e./ha, no OTH1): 100; efficacy ECHCF (ECHCF; [3]): 100; efficacy ECHCF (ECHCF; 200 g a.e./ha, no OTH1): 100; efficacy ECHCF (ECHCF; [4]): 100 |
| CP(=O)(O)CCC(N)C(=O)O (centres unmarked) [glufosinate] | – | – | – | – | – | – | – | – | – | – | – | – | – | – | – | – | – | – | – | – | inhibition at 75 g/ha (ABUTH; [5]): 68%; inhibition at 75 g/ha (ABUTH; [6]): 22%; inhibition at 100 g/ha (ABUTH; read-out: % inhibition ABUTH, Table 19B, 100 g a.e./ha, OTH1 1 % v/v): 82%; inhibition at 100 g/ha (ABUTH; read-out: % inhibition ABUTH, Table 19B, 100 g a.e./ha, no OTH22, no OTH1): 43%; inhibition at 150 g/ha (ABUTH; [5]): 90%; inhibition at 150 g/ha (ABUTH; [6]): 74%; inhibition at 200 g/ha (ABUTH; read-out: % inhibition ABUTH, Table 19B, 200 g a.e./ha, OTH1 1 % v/v): 98%; inhibition at 200 g/ha (ABUTH; read-out: % inhibition ABUTH, Table 19B, 200 g a.e./ha, no OTH22, no OTH1): 89%; inhibition at 75 g/ha (ECHCF; [7]): 95%; inhibition at 75 g/ha (ECHCF; [8]): 94%; inhibition at 100 g/ha (ECHCF; read-out: % inhibition ECHCF, Table 19B, 100 g a.e./ha, OTH1 1 % v/v): 96%; inhibition at 100 g/ha (ECHCF; read-out: % inhibition ECHCF, Table 19B, 100 g a.e./ha, no OTH22, no OTH1): 95%; inhibition at 150 g/ha (ECHCF; [7]): 99%; inhibition at 150 g/ha (ECHCF; [8]): 98%; inhibition at 200 g/ha (ECHCF; read-out: % inhibition ECHCF, Table 19B, 200 g a.e./ha, OTH1 1 % v/v): 100%; inhibition at 200 g/ha (ECHCF; read-out: % inhibition ECHCF, Table 19B, 200 g a.e./ha, no OTH22, no OTH1): 99% |
| CCc1cnc(C2=NC(C)(C(C)C)C(=O)N2)c(C(=O)O)c1 (centres unmarked) [imazethapyr] | 14 | 25 | 41 | 33 | 52 | 50 | 73 | 67 | 73 | 72 | 80 | 81 | 82 | 85 | 85 | 89 | 68 | 66 | 72 | 71 | efficacy ECHCF (ECHCF; 100 g a.e./ha, no OTH1): 75; efficacy ECHCF (ECHCF; [3]): 74; efficacy ECHCF (ECHCF; 200 g a.e./ha, no OTH1): 87; efficacy ECHCF (ECHCF; [4]): 80 |
| CCOc1cc(Oc2ccc(C(F)(F)F)cc2Cl)ccc1[N+](=O)[O-] [oxyfluorfen] | – | – | – | – | – | – | – | – | – | – | – | – | – | – | – | – | – | – | – | – | inhibition at 75 g/ha (ABUTH; [9]): 80%; inhibition at 75 g/ha (ABUTH; [10]): 81%; inhibition at 100 g/ha (ABUTH; Table 19B, 100 g a.e./ha, OTH1 1 % v/v, read-out: % inhibition ABUTH): 82%; inhibition at 100 g/ha (ABUTH; Table 19B, 100 g a.e./ha, no OTH22, no OTH1, read-out: % inhibition ABUTH): 82%; inhibition at 150 g/ha (ABUTH; [9]): 87%; inhibition at 150 g/ha (ABUTH; [10]): 84%; inhibition at 200 g/ha (ABUTH; Table 19B, 200 g a.e./ha, OTH1 1 % v/v, read-out: % inhibition ABUTH): 92%; inhibition at 200 g/ha (ABUTH; Table 19B, 200 g a.e./ha, no OTH22, no OTH1, read-out: % inhibition ABUTH): 91%; inhibition at 75 g/ha (ECHCF; [11]): 0%; inhibition at 75 g/ha (ECHCF; [12]): 0%; inhibition at 100 g/ha (ECHCF; Table 19B, 100 g a.e./ha, OTH1 1 % v/v, read-out: % inhibition ECHCF): 0%; inhibition at 100 g/ha (ECHCF; Table 19B, 100 g a.e./ha, no OTH22, no OTH1, read-out: % inhibition ECHCF): 0%; inhibition at 150 g/ha (ECHCF; [11]): 0%; inhibition at 150 g/ha (ECHCF; [12]): 0%; inhibition at 200 g/ha (ECHCF; Table 19B, 200 g a.e./ha, OTH1 1 % v/v, read-out: % inhibition ECHCF): 2%; inhibition at 200 g/ha (ECHCF; Table 19B, 200 g a.e./ha, no OTH22, no OTH1, read-out: % inhibition ECHCF): 3% |
